Source: PubChem BioAssay (NCI)
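Results reflect a 48-hour exposure of cells in 96-well plates to compound at five concentrations. GI50 marks 50% less growth. TGI: concentration producing complete growth inhibition.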

Legend:
Experiment in all cases: NCI tumour cell line growth inhibition, 48 h
[1] = tested on: 786-0 renal
[2] = tested on: HCT-116 colon
[3] = tested on: HCT-15 colon
[4] = tested on: HT29 colon
[5] = tested on: KM12 colon
[6] = tested on: NCI-H23 lung
[7] = tested on: NCI-H460 lung
[8] = tested on: RPMI-8226 leukemia
[9] = tested on: SNB-75 CNS
[10] = tested on: BT-549 breast

| Structure (SMILES) | TGI [1] | TGI [2] | TGI [3] | TGI [4] | TGI [5] | TGI [6] | TGI [7] | TGI [8] | TGI [9] | TGI [10] | GI50 [1] | GI50 [10] | GI50 [2] | GI50 [3] | GI50 [4] | GI50 [5] | GI50 [6] | GI50 [7] | GI50 [8] | GI50 [9] |
| --- | --- | --- | --- | --- | --- | --- | --- | --- | --- | --- | --- | --- | --- | --- | --- | --- | --- | --- | --- | --- |
| COC(=O)c1cc(=O)nc2cc3cccccc3n12 | > 100 µM | > 100 µM | > 100 µM | > 100 µM | > 100 µM | > 100 µM | > 100 µM | > 100 µM | > 100 µM | – | – | – | – | – | – | – | – | – | – | – |
| O=C1c2ccccc2C(=O)C12CCc1ccccc12 | > 100 µM | – | > 100 µM | > 100 µM | – | > 100 µM | > 100 µM | – | > 100 µM | – | – | – | – | – | – | – | – | – | – | – |
| CC(/C=C/C(O)=C1/C(=O)CNC1=O)=C\[C@@H](C)[C@H]1O[C@@]2(C)O[C@H](C(=O)[C@@H]3O[C@@]32C)[C@@H]1C | 36.5 µM | 39 µM | 49.6 µM | 47 µM | 36.4 µM | 59 µM | – | 35.9 µM | 63.1 µM | 36.3 µM | – | – | – | – | – | – | – | – | – | – |
| O=C(CC1(O)C(=O)Nc2ccc(F)cc21)c1ccc(C(=O)NCC2CCC3(CC2)OOC2(CCCCC2)OO3)cc1 (stereo not given) | 3.81 µM | 32 µM | 27.9 µM | 28 µM | 17.5 µM | 19.9 µM | 6.47 µM | 8.55 µM | – | 34.6 µM | 2 µM | 12.6 µM | 8.66 µM | 11.4 µM | 11.7 µM | 4.09 µM | 3.62 µM | 2.52 µM | 2.57 µM | – |
| CC(=O)/C=C/c1ccc(Nc2c3ccccc3nc3occ(Cl)c23)cc1 | 17.2 µM | 17.6 µM | 11.7 µM | > 100 µM | > 100 µM | 13.2 µM | 14.6 µM | – | 59.4 µM | 22.7 µM | 3.17 µM | 4.9 µM | 4.83 µM | 2.09 µM | 2.58 µM | > 100 µM | 3.1 µM | 2.96 µM | – | 18.3 µM |
| COc1ccc(/C=C2\CCC(CCN(C)C)(C3=CCCC3)C2=O)cc1 (stereo not given) | 28.7 µM | 29.1 µM | 51.4 µM | 32.8 µM | 32.4 µM | 81.3 µM | 40.5 µM | 48.7 µM | 55.2 µM | – | – | – | – | – | – | – | – | – | – | – |
| CC(=O)OC(C(=O)[O][Sn]([CH3])([CH3])[CH3])c1ccccc1 (stereo not given) | > 100 µM | > 100 µM | > 100 µM | > 100 µM | > 100 µM | > 100 µM | > 100 µM | > 100 µM | > 100 µM | – | > 100 µM | – | > 100 µM | > 100 µM | > 100 µM | > 100 µM | > 100 µM | > 100 µM | > 100 µM | > 100 µM |
| CO[C@H]1/C=C/O[C@@]2(C)Oc3c(C)c(O)c4c(O)c(c(/C=N/N5CCN(C)CC5)c(O)c4c3C2=O)NC(=O)/C(C)=C\C=C\[C@H](C)[C@H](O)[C@@H](C)[C@@H](O)[C@@H](C)[C@H](OC(C)=O)[C@@H]1C | > 100 µM | > 100 µM | – | > 100 µM | > 100 µM | – | > 100 µM | > 100 µM | – | > 100 µM | – | – | – | – | – | – | – | – | – | – |
| CC(C)(C)NCC(O)COc1c(Br)c(Br)c(Br)c2c1OC(C)(C)C2 (stereo not given) | 3.21 µM | – | 3.4 µM | 2.75 µM | 3.4 µM | – | 3.28 µM | 3.09 µM | – | 3.11 µM | 1.58 µM | 1.69 µM | – | 1.89 µM | 1.34 µM | 1.82 µM | – | 1.77 µM | 1.45 µM | – |
| COc1ccc(-c2c(C#N)c(N)nc(N3CCOCC3)c2C#N)cc1 | 76.6 µM | 65.2 µM | 62.4 µM | > 100 µM | 87.4 µM | – | > 100 µM | 58.7 µM | 60.7 µM | > 100 µM | 20.7 µM | 20.9 µM | 17.7 µM | 18.8 µM | 26.6 µM | 21.7 µM | – | 29.9 µM | 16.1 µM | 13.5 µM |
| N=c1c2ccccc2sc2nc3ccccc3n12 | > 100 µM | – | – | > 100 µM | > 100 µM | > 100 µM | > 100 µM | – | – | – | – | – | – | – | – | – | – | – | – | – |
| CCOC(=O)C1Cc2ccc3c4c(ccc(c24)C1)CC(C(=O)OCC)C3 | > 100 µM | > 100 µM | > 100 µM | > 100 µM | > 100 µM | > 100 µM | – | > 100 µM | > 100 µM | – | – | – | – | – | – | – | – | – | – | – |
| C=C(CN1CCc2c([nH]c3ccccc23)C1)c1ccc(C(=O)Nc2ccccc2N)cc1 | 23.6 µM | 32.9 µM | 28.1 µM | – | 12.6 µM | 19.9 µM | 21 µM | 3.57 µM | – | 17.7 µM | 4.96 µM | 5.29 µM | 2.19 µM | 3.5 µM | – | 3.42 µM | 3.73 µM | 3.57 µM | 0.356 µM | – |
| CN(C)C(=S)/N=c1\ssc(=S)n1C | > 100 µM | > 100 µM | > 100 µM | > 100 µM | > 100 µM | > 100 µM | > 100 µM | > 100 µM | > 100 µM | – | – | – | – | – | – | – | – | – | – | – |
| CC1=Nc2ccccc2SC(c2c(Cl)cccc2Cl)C1 (stereo not given) | 1.49 µM | 0.616 µM | 2.57 µM | 1.57 µM | 2.15 µM | 2.64 µM | 3.26 µM | 3.09 µM | 5.67 µM | – | – | – | – | – | – | – | – | – | – | – |
| COc1ccccc1-c1cc(=O)c2cc(C)c(C)c(C(=O)O)c2o1 | > 100 µM | > 100 µM | > 100 µM | > 100 µM | > 100 µM | > 100 µM | > 100 µM | > 100 µM | > 100 µM | – | – | – | – | – | – | – | – | – | – | – |
| C[N+](C)(C)CC1CCCCC1=O (stereo not given) | > 100 µM | 31.5 µM | 29 µM | 38.3 µM | > 100 µM | 40.8 µM | > 100 µM | 44.7 µM | 81.2 µM | – | – | – | – | – | – | – | – | – | – | – |
| Cc1cc(NCc2cc(Nc3ccnc4cc(Cl)ccc34)ccc2F)nc(N2CCOCC2)n1 | 3.12 µM | – | – | 5.68 µM | 4.59 µM | 7.28 µM | 4.77 µM | 5.58 µM | 2.79 µM | – | 1.66 µM | – | – | – | 2.21 µM | 2.01 µM | 2.43 µM | 2 µM | 1.81 µM | 1.32 µM |
